One experiment has as its system oilseed rape. Kind of experiment: Field trial: oilseed rape grain yield. The class given is in vivo. The protocol:
Oilseed rape was grown in 2002 at the Verde in France. The variety Colosse was planted at a seeding rate of 3 kg/ha. Row spacing was 17 cm. Plot size was 30 m^2. […] The formulation was diluted in a total spray volume of 300 l/ha.
At maturity, the plants were harvested and the grain yield was measured (Tab. 4).

The subject of another experiment is Leptosphaeria maculans. Kind of experiment: Field trial: Leptosphaeria maculans in oilseed rape (stem scoring, disease index). The experiment is classed as in vivo.
In experiment [1] the test system is maize. Nature of the experiment: Field trial: green leaf retention in maize (green leaf area). The class given is in vivo. An excerpt:
The variety DKB 390 was planted at a seeding rate of 60,000 plants per ha. Row spacing was 80 cm. Plot size was 30 m^2. […] Green leaf retention was estimated in treated and control plants by estimating the green leaf area 28 days after treatment in 10 randomly chosen plants per plot.

The test system of a further experiment is Rhizoctonia solani. Nature of the experiment: Field trial: efficacy against Rhizoctonia solani in rice (infected leaf area, frequency of infection). The class given is in vivo. The protocol: Imidazolinone tolerant rice ([…]) was grown in 2008 at Washington, 7033 Highway 103, LA, USA. […] Row spacing was 18 cm. Plot size was 27.5 m^2. […] Infection with Rhizoctonia solani 77 days after treatment with COMPOUND 2 was assessed (Tab. 3) by estimating the infected leaf area and frequency of infection in 10 randomly chosen plants per plot.

Experiment [2] deals with maize. Kind of experiment: Field trial: maize grain yield and thousand grain weight (TGW). The class given is in vivo. The method, then:
The variety DKB 390 was planted at a seeding rate of 60,000 plants per ha. Row spacing was 80 cm. Plot size was 30 m^2. […] At maturity, the plants were harvested and the grain yield and thousand grain weight (TGW) were measured (Tab. 2).

In the next experiment the test system is soybeans. Nature of the experiment: Field trial: soybean grain yield and thousand grain weight (TGW). The class given is in vivo. The note with it: for Grain Yield (dt/ha) / TGW: soybeans, field, EC; for Grain Yield (dt/ha): Control 16.6; for TGW: Control 113.9.
For experiment [3], the system named is Asian Soybean Rust (Phakopsora pachyrhizi). Kind of experiment: Field trial: efficacy against Asian Soybean Rust in soybeans (infected leaf area). The conditions noted are these: for Efficacy against soybean rust (%): soybeans, field, EC, assessed 20 days after last treatment, infection in Control 95% infected leaf area.
The subject of the next experiment is rice. Nature of the experiment: Field trial: rice grain yield. The class given is in vivo. The protocol:
Imidazolinone tolerant rice ([…]) was grown in 2008 at Washington, 7033 Highway 103, LA, USA. […] Row spacing was 18 cm. Plot size was 27.5 m^2. […] At maturity, the plants were harvested and the grain yield was measured (Tab. 3).

Experiment [4] has as its system common rust (Puccinia sorghi). Kind of experiment: Field trial: efficacy against common rust in maize (infected leaf area). The experiment is classed as in vivo. An excerpt: The variety DKB 390 was planted at a seeding rate of 60,000 plants per ha. Row spacing was 80 cm. Plot size was 30 m^2.
[5] abbreviates: herbicide tolerant oilseed rape variety.
Where [6] appears, read: 30 g AI/ha applied twice (BBCH 55/61 and 65/71).
The mark [7] stands for this setting: 50 g AI/ha applied twice (application time BBCH 19).

In the case of `O=C(Nc1ccccc1-c1ccc(Cl)cc1)c1cccnc1Cl` [BOSCALID, boscalid], in the experiment on oilseed rape (setting [5]), the “grain yield, combination of treatment with herbicide tolerant variety” value was “synergistic effects” and the “increase in grain yield versus expected from single effects” value is on record as “bigger”. For the same compound, the “Grain Yield (dt/ha)” value in the experiment on oilseed rape (oilseed rape Colosse, field, 50 g/ha, WG (Cantus), BBCH 16, Control 33.9) is given as 49.3 dt/ha. In addition, in the experiment with oilseed rape (oilseed rape field trial), the “grain yield compared to the untreated control” value is reported as “increase”. Moreover, the “activity against Leptosphaeria maculans versus expected from combination of effects” value in the experiment on Leptosphaeria maculans (herbicide tolerant (imidazolinone resistance) oilseed rape variety) was “increased”. In addition, the “disease control, combination of treatment with herbicide tolerant variety” value in the experiment on Leptosphaeria maculans (setting [5]) is “synergistic effects”. The compound also came in with an LEPTMA disease index in the experiment with Leptosphaeria maculans (oilseed rape Colosse, field, 50 g/ha, WG (Cantus), BBCH 16, 209 days after treatment, Control 3.17, infection rate in Control 49%) of 1.71. The “activity against Leptosphaeria maculans in oilseed rape” value in the experiment with Leptosphaeria maculans (oilseed rape field trial, Cantus WG 500 g/kg, 0.5 kg/ha, once, 209 days after treatment) is reported as “good activity”.
On to `Cn1cc(C(=O)Nc2ccccc2-c2cc(F)c(F)c(F)c2)c(C(F)F)n1` [COMPOUND 2, N-(3′,4′,5′-trifluorobiphenyl-2-yl)-3-difluoromethyl-1-methyl-1H-pyrazole-4-carboxamide], for which the “Green Leaf Area (%)” value with maize [1] (maize DKB 390, field, 50 g/ha, EC, BBCH 51/55, 28 days after treatment, Control 34) was found to be 40%. For the same compound, the “green leaf area compared to control plants” value in the experiment on maize [1] (maize field trial, 28 days after treatment) is recorded as “increase”. For the same compound, the “increase in green leaf tissue versus expected from combination of effects” value in the experiment on maize [1] (transgenic maize plants) is given as “bigger”. Besides, the “disease control, combination of treatment with Imidazolinone tolerance trait” value in the experiment with Rhizoctonia solani (CL 161 rice) was “synergistic effects”. For the same compound, the “Efficacy against Rhizctonia (%) Frequency” value in the experiment with Rhizoctonia solani (Imidazolinone tolerant rice CL 161, field, 50 g/ha, EC, BBCH 32/34, 77 days after treatment) is recorded as 45.6%. The “Efficacy against Rhizctonia (%) Infection” value in the experiment on Rhizoctonia solani (Imidazolinone tolerant rice CL 161, field, 50 g/ha, EC, BBCH 32/34, 77 days after treatment, infection in Control 8% infected leaf area) was determined as 50%. The “activity against Rhizoctonia compared with a variety without the herbicide tolerance trait” value in the experiment on Rhizoctonia solani (Imidazolinone tolerant rice variety (CL 161)) is listed as “higher”. In the experiment with Rhizoctonia solani (rice field trial, EC 62.5 g/l, 0.8 l/ha, once, 77 days after treatment), the “activity against Rhizoctonia in rice” value is reported as “active”. The “Grain Yield (dt/ha)” value in the experiment on maize [2] (maize DKB 390, field, 50 g/ha, EC, BBCH 51/55, Control 49.2) was found to be 55.2 dt/ha; in the experiment on soybeans (setting [6]), 21.6 dt/ha; in the experiment with soybeans (setting [7]) it was 22.9 dt/ha; in the experiment on rice (Imidazolinone tolerant rice CL 161, field, 50 g/ha, EC, BBCH 32/34, Control 37.76), 54.28 dt/ha. Moreover, the “TGW” value in the experiment with maize [2] (maize DKB 390, field, 50 g/ha, EC, BBCH 51/55, Control 325) is on record as 333 g; in the experiment on soybeans (setting [6]), 143.5 g; in the experiment with soybeans (setting [7]), 144.1 g. For the same compound, the “grain weight of harvested grain over the untreated control” value with maize [2] (maize field trial) is given as “increased”. Further, the “grain yield compared to the untreated control” value in the experiment on maize [2] (maize field trial), with soybeans (soybean field trial) and in the experiment with rice (rice field trial) was “increase” in each case. Besides, the “grain yield, combination of treatment with transgenic variety” value in the experiment on maize [2] (transgenic maize variety) and with soybeans (transgenic soybean variety) was “synergistic effects” each time. In addition, the “increase in grain yield and in grain weight versus expected from single effects” value in the experiment on maize [2] (transgenic maize variety) and in the experiment with soybeans (transgenic soybean variety) was “much bigger” in each case. Moreover, the “grain weight of harvested grain versus the untreated” value in the experiment on soybeans (soybean field trial) was “increased”. Further, the “activity against Asian Soybean Rust” value in experiment [3] (soybean field trial, EC 62.5 g/l, 0.48 l/ha and 0.8 l/ha, applied twice, 20 days after last treatment) is on record as “good activity”. Besides, the figures for the “Efficacy against soybean rust (%)” value in experiment [3] (setting [6]) and in experiment [3] (setting [7]) were 34% and 46%, respectively. Moreover, in experiment [3] (transgenic glyphosate tolerant soybean variety), the “activity against Asian Soybean Rust versus expected from single effects” value is “increased”. Also, the “disease control, combination of treatment with transgenic variety” value in [3] (transgenic soybean variety) and in experiment [4] (transgenic maize variety) was “synergistic effects” throughout. Besides, the “grain yield, combination of treatment with Imidazolinone tolerance trait” value in the experiment on rice (CL 161 rice) is reported as “synergistic effects”. The “increase in grain yield compared with a conventional variety” value in the experiment on rice (Clearfield variety (CL 161)) is “bigger”. Also, the “Efficacy against rust (%)” value in experiment [4] (maize DKB 390, field, 50 g/ha, EC, BBCH 51/55, 28 days after treatment, infection in Control 8.8% infected leaf area) was determined as 88.6%. The “activity against common rust in maize” value in experiment [4] (maize field trial, EC 62.5 g/l, 0.8 l/ha, once, 28 days after treatment) is given as “good activity”. Moreover, the “activity against common rust versus expected from single effects” value in experiment [4] (transgenic glyphosate tolerant and/or insect resistant maize varieties) is reported as “increased”.
